Experimental data: ChEMBL document CHEMBL1201862, “PubChem BioAssay data set” (2004)
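Briefly, cells in 96-well plates were exposed to five compound concentrations for 48 h, and endpoints were estimated by linear interpolation. GI50: concentration for 50% inhibition of growth.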 Calls of active or inactive are those of the source. No stated cut-off is given here; in the data, active = GI50 up to about 1.1 µM and inactive = higher.

Columns and labels:
Assay in all cases: inhibition of tumour cell growth, NCI panel, 48 h
Hs-578T = test system: Hs-578T
SNB-19 = test system: SNB-19
LOX IMVI = test system: LOX IMVI
SK-MEL-5 = test system: SK-MEL-5
DU-145 = test system: DU-145
UACC-257 = test system: UACC-257
SK-MEL-2 = test system: SK-MEL-2
K562 = test system: K562
Malme-3M = test system: Malme-3M
KM12 = test system: KM12
A498 = test system: A498
U-251 = test system: U-251
BT-549 = test system: BT-549
OVCAR-4 = test system: OVCAR-4
NCI/ADR-RES = test system: NCI/ADR-RES
M14 = test system: M14
NCI-H23 = test system: NCI-H23
HCT-116 = test system: HCT-116
CAKI-1 = test system: CAKI-1
HCC 2998 = test system: HCC 2998

| SMILES | GI50 (Hs-578T) | GI50 (SNB-19) | GI50 (LOX IMVI) | GI50 (SK-MEL-5) | GI50 (DU-145) | GI50 (UACC-257) | GI50 (SK-MEL-2) | GI50 (K562) | GI50 (Malme-3M) | GI50 (KM12) | GI50 (A498) | GI50 (U-251) | GI50 (BT-549) | GI50 (OVCAR-4) | GI50 (NCI/ADR-RES) | GI50 (M14) | GI50 (NCI-H23) | GI50 (HCT-116) | GI50 (CAKI-1) | GI50 (HCC 2998) |
| --- | --- | --- | --- | --- | --- | --- | --- | --- | --- | --- | --- | --- | --- | --- | --- | --- | --- | --- | --- | --- |
| CC[C@H](C)C1=C(O)[N@+]2([O-])Oc3ccc(-c4c(O)c(O)c(-c5ccc(O)cc5)c(OC(C)=O)c4OC(C)=O)cc3O[C@]2([C@@H](C)CC)C(=O)N1O | 26.5 µM (inactive) | 47.3 µM (inactive) | 22.4 µM (inactive) | 19 µM (inactive) | 33.3 µM (inactive) | > 50 µM (inactive) | > 50 µM (inactive) | 21.4 µM (inactive) | 21.3 µM (inactive) | 33.7 µM (inactive) | 13.9 µM (inactive) | 26.7 µM (inactive) | 25.6 µM (inactive) | 11.6 µM (inactive) | 16.5 µM (inactive) | 30.2 µM (inactive) | 47.3 µM (inactive) | 10.1 µM (inactive) | 28.8 µM (inactive) | – |
| C#Cc1nc(N)c2ncn(C3OC(COS(N)(=O)=O)C(O)C3O)c2n1 (centres undefined) | 0.0379 µM (active) | 0.0208 µM (active) | < 0.0176 µM (active) | 0.0361 µM (active) | 0.0518 µM (active) | < 0.0318 µM (active) | 0.0101 µM (active) | 0.0131 µM (active) | – | < 0.0193 µM (active) | < 0.0148 µM (active) | 0.0213 µM (active) | < 0.01 µM (active) | < 0.0193 µM (active) | < 0.0184 µM (active) | < 0.0426 µM (active) | < 0.0164 µM (active) | 0.0184 µM (active) | 0.0559 µM (active) | < 0.01 µM (active) |
| CC(=O)OC1OC(c2ccoc2)C[C@@]12C1CCC3O[C@]3(C)[C@]1(C)C[C@H](OC(C)=O)[C@H]2C (some centres undefined) | > 75 µM (inactive) | > 75 µM (inactive) | > 75 µM (inactive) | > 75 µM (inactive) | > 75 µM (inactive) | > 75 µM (inactive) | > 75 µM (inactive) | > 75 µM (inactive) | – | > 75 µM (inactive) | > 75 µM (inactive) | > 75 µM (inactive) | > 75 µM (inactive) | 59.2 µM (inactive) | > 75 µM (inactive) | > 75 µM (inactive) | 74.1 µM (inactive) | > 75 µM (inactive) | > 75 µM (inactive) | > 75 µM (inactive) |
| CN1CCN(Cc2nc3c(s2)CCc2sccc2-3)CC1 | > 100 µM (inactive) | 74.8 µM (inactive) | – | 36.4 µM (inactive) | > 100 µM (inactive) | 79.3 µM (inactive) | > 100 µM (inactive) | 89.3 µM (inactive) | 89.3 µM (inactive) | > 100 µM (inactive) | 12.7 µM (inactive) | > 100 µM (inactive) | > 100 µM (inactive) | > 100 µM (inactive) | > 100 µM (inactive) | 28.4 µM (inactive) | > 100 µM (inactive) | 62.5 µM (inactive) | 37.7 µM (inactive) | 51.4 µM (inactive) |
| O=C1OCC(O)=C1C(c1ccc(Cl)cc1)c1cc2c(cc1O)OCO2 (centres undefined) | > 100 µM (inactive) | > 100 µM (inactive) | > 100 µM (inactive) | > 100 µM (inactive) | > 100 µM (inactive) | – | > 100 µM (inactive) | > 100 µM (inactive) | > 100 µM (inactive) | > 100 µM (inactive) | > 100 µM (inactive) | – | > 100 µM (inactive) | > 100 µM (inactive) | > 100 µM (inactive) | > 100 µM (inactive) | – | > 100 µM (inactive) | > 100 µM (inactive) | > 100 µM (inactive) |
| Cc1ccc(/N=N/c2c(O)c3ccccc3[nH]c2=O)c(S(=O)(=O)N(C)C)c1 | > 100 µM (inactive) | > 100 µM (inactive) | > 100 µM (inactive) | > 100 µM (inactive) | > 100 µM (inactive) | > 100 µM (inactive) | > 100 µM (inactive) | > 100 µM (inactive) | > 100 µM (inactive) | > 100 µM (inactive) | > 100 µM (inactive) | > 100 µM (inactive) | > 100 µM (inactive) | > 100 µM (inactive) | > 100 µM (inactive) | > 100 µM (inactive) | > 100 µM (inactive) | > 100 µM (inactive) | > 100 µM (inactive) | – |
| C/C(=N/NC(=O)c1ccccc1Nc1ccccc1C(=O)N/N=C(\C)c1ccc(C)cc1)c1ccc(C)cc1 | > 100 µM (inactive) | > 100 µM (inactive) | – | 42.1 µM (inactive) | > 100 µM (inactive) | > 100 µM (inactive) | > 100 µM (inactive) | 57.4 µM (inactive) | 32.5 µM (inactive) | 74.8 µM (inactive) | > 100 µM (inactive) | > 100 µM (inactive) | > 100 µM (inactive) | 32.1 µM (inactive) | > 100 µM (inactive) | 47 µM (inactive) | > 100 µM (inactive) | 53.3 µM (inactive) | > 100 µM (inactive) | 10.9 µM (inactive) |
| CN(C)CCCNC1=C(Cl)C(=O)c2c(O)ccc(O)c2C1=O | 1.28 µM (inactive) | 1.94 µM (inactive) | 1.67 µM (inactive) | 1.5 µM (inactive) | 1.82 µM (inactive) | 1.95 µM (inactive) | – | 3.61 µM (inactive) | 1.84 µM (inactive) | 2.99 µM (inactive) | > 10 µM (inactive) | 1.74 µM (inactive) | 1.6 µM (inactive) | 1.49 µM (inactive) | 2.44 µM (inactive) | 1.51 µM (inactive) | 1.65 µM (inactive) | 2.26 µM (inactive) | > 10 µM (inactive) | 1.79 µM (inactive) |
| CC(Oc1ccc(Cl)cc1Cl)C(=O)NN1C(=O)CSC1c1ccc(Cl)cc1 (centres undefined) | 64.7 µM (inactive) | 30.4 µM (inactive) | 56 µM (inactive) | 49.7 µM (inactive) | 63.5 µM (inactive) | 48.2 µM (inactive) | 56.1 µM (inactive) | 44.1 µM (inactive) | – | 86.3 µM (inactive) | 25.2 µM (inactive) | 40.3 µM (inactive) | 43.7 µM (inactive) | 35.3 µM (inactive) | > 100 µM (inactive) | 47.1 µM (inactive) | 79.8 µM (inactive) | 57.9 µM (inactive) | 18.9 µM (inactive) | 54.8 µM (inactive) |
| CCC(=O)Nc1ccc(N2C(=O)/C(=C/c3ccc(O)c(OC)c3)N=C2c2ccccc2)cc1 | 61.1 µM (inactive) | 22.5 µM (inactive) | 36.7 µM (inactive) | 14.3 µM (inactive) | 28.7 µM (inactive) | 26.7 µM (inactive) | 23.6 µM (inactive) | 18.5 µM (inactive) | 29.8 µM (inactive) | 33.7 µM (inactive) | 15.8 µM (inactive) | – | 20.4 µM (inactive) | 9.91 µM (inactive) | 70.6 µM (inactive) | 19.7 µM (inactive) | 43.8 µM (inactive) | 34.4 µM (inactive) | 17.3 µM (inactive) | 21 µM (inactive) |
| O=[N+]([O-])c1ccccc1S(=O)(=O)N1CCCc2cc(Cl)ccc21 | 50.8 µM (inactive) | > 80.2 µM (inactive) | 24.3 µM (inactive) | 19.6 µM (inactive) | > 90.6 µM (inactive) | 12.6 µM (inactive) | > 52.6 µM (inactive) | 3.46 µM (inactive) | > 100 µM (inactive) | 18.5 µM (inactive) | 27.2 µM (inactive) | – | 8.91 µM (inactive) | > 100 µM (inactive) | 18 µM (inactive) | 46.5 µM (inactive) | 34 µM (inactive) | 16.2 µM (inactive) | > 100 µM (inactive) | 38 µM (inactive) |
| CC(=O)NC(C)(C)C1CCC(C)CC1 (centres undefined) | 48.9 µM (inactive) | > 100 µM (inactive) | > 100 µM (inactive) | > 100 µM (inactive) | > 100 µM (inactive) | > 100 µM (inactive) | – | > 100 µM (inactive) | > 100 µM (inactive) | > 100 µM (inactive) | > 100 µM (inactive) | > 100 µM (inactive) | > 100 µM (inactive) | > 100 µM (inactive) | > 100 µM (inactive) | > 100 µM (inactive) | > 100 µM (inactive) | > 100 µM (inactive) | > 100 µM (inactive) | > 100 µM (inactive) |
| Cc1ccc(C(C)C)c(OCC(=O)N/N=C/c2c[nH]c3ccc(Br)cc23)c1 | 4.82 µM (inactive) | 2.87 µM (inactive) | 3.69 µM (inactive) | 1.38 µM (inactive) | 2.56 µM (inactive) | 2.87 µM (inactive) | 2.44 µM (inactive) | 2.38 µM (inactive) | 6.3 µM (inactive) | 1.41 µM (inactive) | 4.09 µM (inactive) | 3.11 µM (inactive) | 4.99 µM (inactive) | 3 µM (inactive) | 1.57 µM (inactive) | 1.98 µM (inactive) | 0.451 µM (active) | 3.15 µM (inactive) | 2.55 µM (inactive) | – |
| OC1(c2ccc(Cl)cc2)C(N2CCCC2)c2ccccc2C2=NCCN21 (centres undefined) | 29.9 µM (inactive) | 54.3 µM (inactive) | 18.1 µM (inactive) | 15.1 µM (inactive) | 32.4 µM (inactive) | 20.1 µM (inactive) | 21.9 µM (inactive) | 13.6 µM (inactive) | 18.5 µM (inactive) | 20.1 µM (inactive) | 21.2 µM (inactive) | 37.4 µM (inactive) | 27 µM (inactive) | 20 µM (inactive) | 18.6 µM (inactive) | 15.8 µM (inactive) | 24.3 µM (inactive) | 10.9 µM (inactive) | 26.5 µM (inactive) | – |
